tested on: 4 PI3K isoforms (Human recombinant GST-PI3K); experiment: PI3K scintillation proximity assay, best IC50 obtained with the four isoforms (alpha, beta, delta, gamma); type: biochemical; settings: best IC50 obtained with the four isoforms of PI3K; read-out: Best potency measured on the 4 PI3K isoforms

Compound | IC50
CCC1c2c(C(=O)N3CCOCC3)nn(-c3ccccc3)c2-c2ccccc2S1(=O)=O (stereo not drawn) [Example 59, 4-ethyl-3-(morpholin-4-ylcarbonyl)-1-phenyl-1,4-dihydrothiochromeno[4,3-c]pyrazole 5,5-dioxide] | 2470 nM
Cn1nc(C(=O)N2CCOCC2)c2c1-c1cc(Br)ccc1S(=O)(=O)C2 [Example 63] | 1040 nM
CN(C)CCCn1nc(C(=O)N2CCOCC2)c2c1-c1ccccc1S(=O)(=O)C2 [Example 69, N,N-Dimethyl-3-[3-(morpholin-4-ylcarbonyl)-5,5-dioxidothiochromeno[4,3-c]pyrazol-1(4H)-yl]propan-1-amine] | 3110 nM
CN1CCCC1CCn1nc(C(=O)N2CCOCC2)c2c1-c1ccccc1S(=O)(=O)C2 (stereo not drawn) [Example 71, 1-[2-(1-Methylpyrrolidin-2-yl)ethyl]-3-(morpholin-4-ylcarbonyl)-1,4-dihydrothiochromeno[4,3-c]pyrazole 5,5-dioxide] | 1230 nM
O=C(c1nn(C2CCNCC2)c2c1CS(=O)(=O)c1ccccc1-2)N1CCOCC1 [Example 74] | 1520 nM
O=C(c1nn(C2CCCCCC2)c2c1CS(=O)(=O)c1ccccc1-2)N1CCOCC1 [Example 78, 1-Cycloheptyl-3-(morpholin-4-ylcarbonyl)-1,4-dihydrothiochromeno[4,3-c]pyrazole 5,5-dioxide] | 469 nM
O=C(c1nn(C2CCCNCC2)c2c1CS(=O)(=O)c1ccccc1-2)N1CCOCC1 (stereo not drawn) [Example 82] | 1900 nM

Second part, the compound after the results:

IC50 | Compound
73 nM | O=C(c1cccc(-n2nc(C(=O)N3CCOCC3)c3c2-c2ccccc2S(=O)(=O)C3)c1)N1CCOCC1 [Example 61, 3-(Morpholin-4-ylcarbonyl)-1-[3-(morpholin-4-ylcarbonyl)phenyl]-1,4-dihydrothiochromeno[4,3-c]pyrazole 5,5-dioxide]
957 nM | NC(=O)c1cccc(-n2nc(C(=O)N3CCOCC3)c3c2-c2ccccc2S(=O)(=O)C3)c1 [Example 62, 3-[3-(Morpholin-4-ylcarbonyl)-5,5-dioxidothiochromeno[4,3-c]pyrazol-1(4H)-yl]benzamide]
1300 nM | O=C(c1nn(-c2ccccc2)c2c1CS(=O)(=O)c1ccc(Br)cc1-2)N1CCOCC1 [Example 64]
376 nM | N#Cc1cccc(-n2nc(C(=O)N3CCOCC3)c3c2-c2ccccc2S(=O)(=O)C3)c1 [Example 68]
6050 nM | CN1CCCC(Cn2nc(C(=O)N3CCOCC3)c3c2-c2ccccc2S(=O)(=O)C3)C1 (stereo not drawn) [Example 70, 1-[(1-Methylpiperidin-3-yl)methyl]-3-(morpholin-4-ylcarbonyl)-1,4-dihydrothiochromeno[4,3-c]pyrazole 5,5-dioxide]
795 nM | O=C(c1nn(CCN2CCOCC2)c2c1CS(=O)(=O)c1ccccc1-2)N1CCOCC1 [Example 72, 3-(Morpholin-4-ylcarbonyl)-1-(2-morpholin-4-ylethyl)-1,4-dihydrothiochromeno[4,3-c]pyrazole 5,5-dioxide]
3010 nM | O=C(c1nn(C2CCCNC2)c2c1CS(=O)(=O)c1ccccc1-2)N1CCOCC1 (stereo not drawn) [Example 75]
772 nM | CN1CCCC(n2nc(C(=O)N3CCOCC3)c3c2-c2ccccc2S(=O)(=O)C3)C1 (stereo not drawn) [Example 77, 1-(1-Methylpiperidin-3-yl)-3-(morpholin-4-ylcarbonyl)-1,4-dihydrothiochromeno[4,3-c]pyrazole 5,5-dioxide]
4640 nM | O=C(c1nn(C2CCNC2)c2c1CS(=O)(=O)c1ccccc1-2)N1CCOCC1 (stereo not drawn) [Example 84]

same assay, conditions: inhibition at 20 μM

Compound | Best potency measured on the 4 PI3K isoforms, % inh @20 μM
CC1(C)c2c(C(=O)N3CCOCC3)nn(-c3ccccc3)c2-c2ccccc2S1(=O)=O [Example 60, 4,4-dimethyl-3-(morpholin-4-ylcarbonyl)-1-phenyl-1,4-dihydrothiochromeno[4,3-c]pyrazole 5,5-dioxide] | 52% in @20 μM
COc1cc(OC)cc(-n2nc(C(=O)N3CCOCC3)c3c2-c2ccccc2S(=O)(=O)C3)c1 [Example 67] | 54% inh @20 μM

Source: patent US9073940B2, “Tricyclic pyrazol amine derivatives” (MERCK SERONO SA, priority 2009, dated 2015)
